target: IKZF2 (Helios) (Homo sapiens, UniProt Q96SW2+Q9UKS7); experiment: Prolabel quantification of IKZF2 protein levels in 293GT cells; assay type: cell-based; settings: 24 h, Pro-label assay, 293GT cells, 10 μM, read-out: IKZF2 % protein reduction at 10 μM, 24 h
Sequence (Q9UKS7 whole entry): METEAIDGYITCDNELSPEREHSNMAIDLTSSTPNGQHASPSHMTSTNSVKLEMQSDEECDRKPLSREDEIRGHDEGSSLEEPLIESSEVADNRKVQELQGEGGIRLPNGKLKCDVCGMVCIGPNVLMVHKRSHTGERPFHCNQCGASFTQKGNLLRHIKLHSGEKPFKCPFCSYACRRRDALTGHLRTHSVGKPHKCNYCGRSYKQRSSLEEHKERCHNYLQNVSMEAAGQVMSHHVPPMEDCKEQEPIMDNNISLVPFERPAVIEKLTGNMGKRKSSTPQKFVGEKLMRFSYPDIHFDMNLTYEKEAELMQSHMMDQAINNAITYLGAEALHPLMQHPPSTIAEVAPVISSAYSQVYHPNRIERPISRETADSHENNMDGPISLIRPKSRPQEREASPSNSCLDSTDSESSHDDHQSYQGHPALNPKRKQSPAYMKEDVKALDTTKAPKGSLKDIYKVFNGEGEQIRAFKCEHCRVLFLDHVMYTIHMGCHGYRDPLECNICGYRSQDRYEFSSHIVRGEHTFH
Sequence (Q96SW2 whole entry): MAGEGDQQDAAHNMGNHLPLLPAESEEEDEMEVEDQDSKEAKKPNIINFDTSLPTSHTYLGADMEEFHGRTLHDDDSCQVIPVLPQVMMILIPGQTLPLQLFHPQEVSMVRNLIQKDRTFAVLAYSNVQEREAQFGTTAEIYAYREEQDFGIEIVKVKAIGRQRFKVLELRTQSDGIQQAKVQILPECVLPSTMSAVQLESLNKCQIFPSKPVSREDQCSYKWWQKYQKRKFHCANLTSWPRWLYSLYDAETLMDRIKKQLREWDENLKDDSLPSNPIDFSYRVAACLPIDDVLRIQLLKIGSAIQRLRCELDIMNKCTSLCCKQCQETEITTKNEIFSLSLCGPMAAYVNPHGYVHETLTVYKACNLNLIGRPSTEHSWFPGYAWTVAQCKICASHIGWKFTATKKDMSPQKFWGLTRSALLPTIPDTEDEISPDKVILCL
Sequence (Q16531 whole entry partner): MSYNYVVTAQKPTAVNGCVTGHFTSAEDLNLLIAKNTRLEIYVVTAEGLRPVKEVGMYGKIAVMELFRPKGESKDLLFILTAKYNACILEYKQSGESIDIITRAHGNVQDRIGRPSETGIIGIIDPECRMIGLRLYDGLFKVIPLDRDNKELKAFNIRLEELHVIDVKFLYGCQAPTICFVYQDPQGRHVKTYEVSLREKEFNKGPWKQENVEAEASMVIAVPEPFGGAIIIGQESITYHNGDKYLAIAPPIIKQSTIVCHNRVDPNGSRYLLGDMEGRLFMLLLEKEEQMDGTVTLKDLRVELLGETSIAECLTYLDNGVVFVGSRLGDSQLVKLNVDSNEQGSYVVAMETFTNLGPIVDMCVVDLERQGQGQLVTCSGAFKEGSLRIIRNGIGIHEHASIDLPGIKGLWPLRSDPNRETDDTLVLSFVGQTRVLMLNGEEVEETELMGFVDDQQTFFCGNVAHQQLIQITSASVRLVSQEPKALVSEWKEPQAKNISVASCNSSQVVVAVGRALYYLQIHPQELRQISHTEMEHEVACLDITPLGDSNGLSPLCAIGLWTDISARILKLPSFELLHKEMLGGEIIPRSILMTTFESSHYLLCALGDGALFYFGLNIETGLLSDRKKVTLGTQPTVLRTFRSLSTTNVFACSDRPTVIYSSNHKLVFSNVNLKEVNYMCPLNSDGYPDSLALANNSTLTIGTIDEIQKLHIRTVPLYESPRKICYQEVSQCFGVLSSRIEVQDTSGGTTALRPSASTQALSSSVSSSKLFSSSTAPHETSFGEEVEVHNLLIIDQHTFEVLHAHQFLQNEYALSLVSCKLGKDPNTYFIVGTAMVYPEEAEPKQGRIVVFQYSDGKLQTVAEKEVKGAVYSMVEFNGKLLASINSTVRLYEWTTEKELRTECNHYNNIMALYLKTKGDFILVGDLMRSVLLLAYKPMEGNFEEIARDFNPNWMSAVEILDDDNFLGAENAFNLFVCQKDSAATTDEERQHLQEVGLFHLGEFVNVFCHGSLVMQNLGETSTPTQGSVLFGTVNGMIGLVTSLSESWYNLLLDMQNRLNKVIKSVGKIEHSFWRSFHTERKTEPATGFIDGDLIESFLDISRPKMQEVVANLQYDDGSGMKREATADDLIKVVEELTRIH

Going from `N#Cc1cccc(CN[C@H]2CCCC[C@@H]2Oc2ccc3c(c2)CN(C2CCC(=O)NC2=O)C3=O)c1` (stereo partly drawn) [I-132, 3-((((1S,2S)-2-((2-(2,6-dioxopiperidin-3-yl)-1-oxoisoindolin-5-yl)oxy)cyclohexyl)amino)methyl)benzonitrile] to `CCN(CC)[C@H]1CCCC[C@@H]1Oc1ccc2c(c1)CN(C1CCC(=O)NC1=O)C2=O` (stereo partly drawn) [I-14, 3-(5-(((1S,2S)-2-(diethylamino)cyclohexyl)oxy)-1-oxoisoindolin-2-yl)piperidine-2,6-dione], the IKZF2 % protein reduction at 10 µM falls from 80% to 60%.

Compared with `CCN(C[C@H]1C[C@@H](OC)C1)[C@H]1CCC[C@@H]1Oc1ccc2c(c1)CN(C1CCC(=O)NC1=O)C2=O` (stereo partly drawn) [I-180, 3-(5-(((1S,2S)-2-(ethyl(((1s,3R)-3-methoxycyclobutyl)methyl)amino)cyclopentyl)oxy)-1-oxoisoindolin-2-yl)piperidine-2,6-dione], `CCN(CC1COC1)[C@H]1CCC[C@@H]1Oc1ccc2c(c1)CN(C1CCC(=O)NC1=O)C2=O` (stereo partly drawn) [I-155, 3-(5-(((1S,2S)-2-(ethyl(oxetan-3-ylmethyl)amino)cyclopentyl)oxy)-1-oxoisoindolin-2-yl)piperidine-2,6-dione] is lower in IKZF2 % protein reduction at 10 µM: 81% for the first, 65% for the second.

Going from `O=C1CCC(N2Cc3cc(O[C@H]4CCC[C@@H]4N4C[C@H]5COC[C@H]5C4)ccc3C2=O)C(=O)N1` (stereo partly drawn) [I-144, 3-(1-oxo-5-(((1S,2S)-2-((3aR,6aS)-tetrahydro-1H-furo[3,4-c]pyrrol-5(3H)-yl)cyclopentyl)oxy)isoindolin-2-yl)piperidine-2,6-dione] to `COC1(C)CCN([C@H]2CCC[C@@H]2Oc2ccc3c(c2)CN(C2CCC(=O)NC2=O)C3=O)CC1` (stereo partly drawn) [I-152, 3-(5-(((1S,2S)-2-(4-methoxy-4-methylpiperidin-1-yl)cyclopentyl)oxy)-1-oxoisoindolin-2-yl)piperidine-2,6-dione], the IKZF2 % protein reduction at 10 µM falls from 88% to 82%.

First: O=C1CCC(N2Cc3cc(O[C@H]4CCC[C@@H]4NCC4CCC(F)(F)CC4)ccc3C2=O)C(=O)N1 (stereo partly drawn) [I-173, 3-(5-(((1S,2S)-2-(((4,4-difluorocyclohexyl)methyl)amino)cyclopentyl)oxy)-1-oxoisoindolin-2-yl)piperidine-2,6-dione]
Second: CO[C@H]1CC[C@H](CN[C@H]2CCC[C@@H]2Oc2ccc3c(c2)CN(C2CCC(=O)NC2=O)C3=O)CC1 (stereo partly drawn) [I-159, 3-(5-(((1S,2S)-2-((((1r,4S)-4-methoxycyclohexyl)methyl)amino)cyclopentyl)oxy)-1-oxoisoindolin-2-yl)piperidine-2,6-dione]
The IKZF2 % protein reduction at 10 µM of the first is higher: 84% for the first, 75% for the second.

First: CCN(CC)[C@H]1CCC[C@@H]1Oc1ccc2c(c1)CN(C1CCC(=O)NC1=O)C2=O (stereo partly drawn) [I-13, 3-(5-(((1S,2S)-2-(diethylamino)cyclopentyl)oxy)-1-oxoisoindolin-2-yl)piperidine-2,6-dione]
Second: O=C1CCC(N2Cc3cc(O[C@H]4CCC[C@@H]4N(CC4CC4)CC4CC4)ccc3C2=O)C(=O)N1 (stereo partly drawn) [I-31, 3-(5-(((1S,2S)-2-(bis(cyclopropylmethyl)amino)cyclopentyl)oxy)-1-oxoisoindolin-2-yl)piperidine-2,6-dione]
The IKZF2 % protein reduction at 10 µM of the first is lower: 85% for the first, 90% for the second.

In the case of `COC1CCC(CN[C@H]2CCC[C@@H]2Oc2ccc3c(c2)CN(C2CCC(=O)NC2=O)C3=O)CC1` (stereo partly drawn) [I-161, 3-(5-(((1S,2S)-2-(((4-methoxycyclohexyl)methyl)amino)cyclopentyl)oxy)-1-oxoisoindolin-2-yl)piperidine-2,6-dione], the IKZF2 % protein reduction at 10 µM is reported as 80%.

same assay, conditions: 24 h, read-out: IKZF2 % protein reduction at 10 μM, 24 h

Work on `CCN(C[C@H]1CC[C@H](OC)CC1)[C@H]1CCC[C@@H]1Oc1ccc2c(c1)CN(C1CCC(=O)NC1=O)C2=O` (stereo partly drawn) [I-170, 3-(5-(((1S,2S)-2-(ethyl(((1r,4S)-4-methoxycyclohexyl)methyl)amino)cyclopentyl)oxy)-1-oxoisoindolin-2-yl)piperidine-2,6-dione] yielded an IKZF2 % protein reduction at 10 µM of 67%.

same assay, conditions: Pro-label assay, 293GT cells, 10 μM

In the case of “3-(1-oxo-5-(((1S,2S)-2-phenoxycyclohexyl)oxy)isoindolin-2-yl)piperidine-2,6-dione and 3-(1-oxo-5-(((1R,2R)-2-phenoxycyclohexyl)oxy)isoindolin-2-yl)piperidine-2,6-dione [I-19]”, the “IKZF2 % protein reduction at 10 μM, 24 h” value is reported as 10%.
